According to patent US6821980B1, “Substituted 5-benzyl-2,4-diaminopyrimidines” (Basilea Pharmaceutica AG, priority 1999, dated 2004):
pIC50: −log10 of the molar value. In brackets after ≈: the same amount, converted by molar mass. Read-outs that look alike come from different tables or passages of the source.

Assays:
[1] = tested on: Staphylococcus aureus 101; assay: MIC against Staphylococcus aureus 101; assay type: cell-based; conditions: Staphylococcus aureus 101, MRSA- and trimethoprim-resistant, clinical isolate; for MIC: read-out: MIC Sa101
[2] = tested on: Streptococcus pneumoniae 1/1; assay: MIC against Streptococcus pneumoniae 1/1; assay type: cell-based; conditions: Streptococcus pneumoniae 1/1, trimethoprim- and penicillin-resistant, serotype 6, clinical isolate; for MIC: read-out: MIC Sp1/1
[3] = target: T1, purified DHFR of strain Sp1/1 of Streptococcus pneumoniae (Streptococcus pneumoniae serotype 4, UniProt Q54801); assay type: biochemical; conditions: IC50 against purified DHFR of strain Sp1/1
T1 sequence (Q54801 1-168 I100L): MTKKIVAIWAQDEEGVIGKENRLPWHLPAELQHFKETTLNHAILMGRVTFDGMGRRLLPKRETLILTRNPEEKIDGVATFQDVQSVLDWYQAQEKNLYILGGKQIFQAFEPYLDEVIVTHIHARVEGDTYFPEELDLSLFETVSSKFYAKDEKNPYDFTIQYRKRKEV

[4] = target: purified DHFR of strain 157/4696 of Staphylococcus aureus (Staphylococcus aureus, UniProt P13955); assay: biochemical
[5] = Table 2, IC50 against purified DHFR of strain 157/4696 (highly trimethoprim-resistant; clinical isolate), read-out: DHFR Sa1

Chain of purified DHFR of strain 157/4696 of Staphylococcus aureus (P13955 whole entry): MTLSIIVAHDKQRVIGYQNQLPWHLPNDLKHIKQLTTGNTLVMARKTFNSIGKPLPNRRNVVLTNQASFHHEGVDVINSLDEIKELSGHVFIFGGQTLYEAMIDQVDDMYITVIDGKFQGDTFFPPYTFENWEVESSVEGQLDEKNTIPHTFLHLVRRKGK

Row | SMILES | MIC ([1]; Table 2) | MIC ([2]; Table 2) | pIC50 ([3]; Table 2) | pIC50 [4] | MIC Sa101 ([1]; Table 2) | MIC Sp1/1 ([2]; Table 2) | pIC50 [4, 5] | MIC ([1]; Table 1) | MIC ([2]; Table 1) | pIC50 ([3]; Table 1)
1 | CCOc1cc(Cc2cnc(N)nc2N)cc(OCC2CC2)c1-c1ccc(OC)cc1 [Example 09-d, 5-(2-Cyclopropylmethoxy-6-ethoxy-4′-methoxy-biphenyl-4-ylmethyl)-pyrimidine-2.4-diamine] | 4 µg/mL (≈ 9.51 µM) | 2 µg/mL (≈ 4.76 µM) | 7.52 | 5.82 |  |  |  |  |  | 
2 | CCOc1cc(Cc2cnc(N)nc2N)cc(OCC)c1-c1ccc2c(c1)OCO2 [Example 02-r, 5-(4-Benzo[1,3]dioxol-5-yl-3,5-diethoxy-benzyl)-pyrimidine-2,4-diamine] | 4 µg/mL (≈ 9.79 µM) | 4 µg/mL (≈ 9.79 µM) | 7.15 | 5.60 |  |  |  |  |  | 
3 | CCOc1cc(Cc2cnc(N)nc2N)cc(OS(=O)(=O)CC2CC2)c1-c1ccc(N)c(F)c1 [Example 38-b, Cyclopropylmethane-sulphonic acid 4′-amino-4-(2,4-diamino-pyrimidin-5-ylmethyl)-6-ethoxy-3′-fluoro-4-ylmethyl-biphenyl-2-yl ester] |  |  | 8.19 |  | 2 µg/mL (≈ 4.1 µM) | 1 µg/mL (≈ 2.05 µM) | 6.66 |  |  | 
4 | CCOc1cc(Cc2cnc(N)nc2N)cc(OS(=O)(=O)CC2CCCO2)c1-c1ccc(N)c(F)c1 (stereo not drawn) [Example 42-b, Tetrahydrofuran-2-yl-methanesulphonic acid 4′-amino-4-(2,4-diamino-primidin-5-ylmethyl)-6-ethoxy-3′-fluoro-biphenAl-2-yl ester] | 8 µg/mL (≈ 15.5 µM) | 2 µg/mL (≈ 3.86 µM) | 8.12 | 6.29 |  |  |  |  |  | 
5 | CCOc1cc(Cc2cnc(N)nc2N)cc(OS(=O)(=O)N2CCOCC2)c1-c1ccc(N)cc1 [Example 22-d, Morpholine-4-sulphonic acid 4′-amino-4-(2,4-diamino-pyrimidin-5-ylmethyl)-6-ethoxy-biphenyl-2-yl ester] | 2 µg/mL (≈ 4 µM) | 1 µg/mL (≈ 2 µM) | 8.21 | 7.35 |  |  |  |  |  | 
6 | CCOc1cc(Cc2cnc(N)nc2N)cc(OS(=O)(=O)N(C)C(C)C)c1-c1cccc(N)c1 [Example 19-d, N-Isopropyl-N-methyl-sulphamic acid 3′-amino-4-(2,4-diamino-pyrimidin-5-ylmethyl)-6-ethoxy-biphenyl-2-yl ester] | 2 µg/mL (≈ 4.11 µM) | 2 µg/mL (≈ 4.11 µM) | 8.08 | 7.26 |  |  |  |  |  | 
7 | CCCS(=O)(=O)Oc1cc(Cc2cnc(N)nc2N)cc(OCC)c1-c1ccc(CN2CCOCC2)c(N)c1 [Example 32-a, Pronane-1-sulophonic acid 3′-amino-4-(2,4-diamino-pyrimidin-5-ylmethyl)-6-ethoxy-4′-morpholinemethyl-4-ylmethyl-biphenyl-2-yl ester] |  |  | 8.34 |  | 4 µg/mL (≈ 7.19 µM) | 1 µg/mL (≈ 1.8 µM) | 6.92 |  |  | 
8 | CCOc1cc(Cc2cnc(N)nc2N)cc(OCC(F)(F)F)c1-c1cccc(N)c1 [Example 07-i, 5-[3′-Amino-6-ethoxy-2-(2,2,2-trifluoro-ethoxy)-biphenyl-4-ylmethyl]-pyrimidine-2,4-diamine] | 4 µg/mL (≈ 9.23 µM) | 4 µg/mL (≈ 9.23 µM) | 7.55 | 6.05 |  |  |  |  |  | 
9 | CCOc1cc(Cc2cnc(N)nc2N)cc(OS(=O)(=O)CC(C)C)c1-c1ccc(NCCO)cc1 [Example 36-e, 2-Methyl-propane-1-sulphonic acid 4-(2,4-diamino-pyrimidin-5-ylmethyl)-6-ethoxy-4′-(2-hydroxy-ethylamino)-biphenyl-2-yl ester] | 4 µg/mL (≈ 7.76 µM) | 0.5 µg/mL (≈ 0.97 µM) | 8.68 | 6.60 |  |  |  |  |  | 
10 | CCOc1cc(Cc2cnc(N)nc2N)cc(OS(=O)(=O)N(C)C)c1-c1ccc(NC)cc1 [Example 26-a, Dimethylsulphamic acid 4-(2,4-diamino-pyrimidin-5-ylmethyl)-6-ethoxy-4′-methylamino-biphenyl-2-yl ester] | 1 µg/mL (≈ 2.12 µM) | 1 µg/mL (≈ 2.12 µM) | 8.68 | 6.89 |  |  |  |  |  | 
11 | CCOc1cc(Cc2cnc(N)nc2N)cc(OS(=O)(=O)C(C)CC)c1-c1ccc(N)c(C)c1 (stereo not drawn) [Example 35e, Butane-2-sulphonic acid 4′-amino-4-(2,4-diamino-pyrimidin-5-ylmethyl)-6-ethoxy-3′-methyl-biphenyl-2-yl ester] |  |  |  | 7.21 |  |  |  | 1 µg/mL (≈ 2.06 µM) | 0.5 µg/mL (≈ 1.03 µM) | 8.34
12 | CCOc1cc(Cc2cnc(N)nc2N)cc(OS(=O)(=O)C(C)CC)c1-c1ccc(CN2CCOCC2)c(N)c1 (stereo not drawn) [Example 35-c, Butane-2-sulphonic acid 3′-amino-4-(2,4-diamino-pyrimidin-5-ylmethyl)-6-ethoxy-4′-morpholin-4-ylmethyl-biphenyl-2-yl ester] | 2 µg/mL (≈ 3.5 µM) | 1 µg/mL (≈ 1.75 µM) | 8.34 | 7.37 |  |  |  |  |  | 
13 | CCOc1cc(Cc2cnc(N)nc2N)cc(OS(=O)(=O)N(C)C)c1-c1ccc(N)c(C)c1 [Example 27-a, Dimethylsulphamic acid 4′-amino-4-(2,4-diamino-pyrimidin-5-ylmethyl)-6-ethoxy-3′-methyl-biphenyl-2-yl ester] | 2 µg/mL (≈ 4.23 µM) | 1 µg/mL (≈ 2.12 µM) | 7.66 | 6.66 |  |  |  |  |  | 
14 | CCOc1cc(Cc2cnc(N)nc2N)cc(OCC)c1-c1ccc(CN(C)CCF)cc1 [Example 04-ac, 5-(2,6-Diethoxy-4′-{[N-(2-fluoro-ethyl)-N-methyl-amino]-methyl}-biphenyl-4-ylmethyl)-pyrimidine-2,4-diamine] | 8 µg/mL (≈ 17.6 µM) | 4 µg/mL (≈ 8.82 µM) | 7.23 | 6.35 |  |  |  |  |  | 
15 | CCOc1cc(Cc2cnc(N)nc2N)cc(OS(=O)(=O)N(C)C2CC2)c1-c1ccc(CN2CCOCC2)c(N)c1 [Example 30-b, N-Cyclopropyl-N-methyl-sulphamic acid 3′-amino-4-(2,4-diamino-pyrimidin-5-ylmethyl)-6-ethoxy-4′-morpholin-4-ylmethyl-biphenyl-2-yl ester] | 2 µg/mL (≈ 3.43 µM) | 2 µg/mL (≈ 3.43 µM) | 7.85 | 7.43 |  |  |  |  |  | 
16 | CCOc1cc(Cc2cnc(N)nc2N)cc(OCC2(/C=C/C#N)CC2)c1-c1ccc(O)cc1 [Example 08-d, (E)-3-[1-[4-(2,4-Diamino-pyrimidin-5-ylmethyl)-6-ethoxy-4′-hydrozy-biphenyl-2-yloxymethyl]-cyopropyl]-acrylonitrile] | 8 µg/mL (≈ 17.5 µM) | 4 µg/mL (≈ 8.74 µM) | 7.80 | 6.21 |  |  |  |  |  | 
17 | CCOc1cc(Cc2cnc(N)nc2N)cc(OCC)c1-c1cccc(NC(C)=O)c1 [Example 05-c, N-[4′-(2,4-Diamino-pyrimidin-5-ylmethyl)-2′,6′-diethoxy-biphenyl-3-yl]-acetamide] | 8 µg/mL (≈ 19 µM) | 4 µg/mL (≈ 9.49 µM) | 7.52 | 5.59 |  |  |  |  |  | 
18 | CCOc1cc(Cc2cnc(N)nc2N)cc(OS(C)(=O)=O)c1-c1ccc(OC)cc1 [Example 16-a, Methanesulphonic acid 4-(2,4-diamino-pyrimidin-5-ylmethyl)-6-ethoxy-4′-methoxy-biphenyl-2-yl ester] | 4 µg/mL (≈ 9 µM) | 2 µg/mL (≈ 4.5 µM) | 7.68 | 6.51 |  |  |  |  |  | 
19 | CCOc1cc(Cc2cnc(N)nc2N)cc(O[C@@H]2CCC[C@H]2OC)c1-c1ccc(O)cc1 (relative stereo) [Example 08-y, 5-[6-Ethoxy-2((trans)-2-methoxy-cyclopentyloxy)-4′-hydroxy-biphenyl-4-ylmethtl]-pyrimidine-2,4-diamine] | 8 µg/mL (≈ 17.8 µM) | 4 µg/mL (≈ 8.88 µM) | 7.02 | 5.57 |  |  |  |  |  | 
20 | CCOc1cc(Cc2cnc(N)nc2N)cc(OCC)c1-c1ccc2[nH]ccc2c1 [Example 02-d, 5-(3,5-Diethoxy-4-(1H-indol-5-yl)-benzyl)-pyrimidine-2,4-diamine] | 8 µg/mL (≈ 19.8 µM) | 1 µg/mL (≈ 2.48 µM) | 7.46 | 5.85 |  |  |  |  |  | 
21 | CCOc1cc(Cc2cnc(N)nc2N)cc(OCC)c1-c1cccc(S(C)(=O)=O)c1 [Example 02-af, 5-(2,6-Diethoxy-3′-methylsulphonyl-biphenyl-4-ylmethyl)-pyrimidine-2,4-diamine] | 8 µg/mL (≈ 18.1 µM) | 8 µg/mL (≈ 18.1 µM) | 7.07 | 5.74 |  |  |  |  |  | 
22 | CCOc1cc(Cc2cnc(N)nc2N)cc(OS(=O)(=O)C(C)C)c1-c1ccc(N)cc1 [Example 18, Propane-2-sulphonic acid 4′-amino-4-(2,4-diamino-pyrimidin-5-ylmethyl)-6-ethoxy-biphenyl-2-yl ester] |  |  |  | 7.41 |  |  |  | 2 µg/mL (≈ 4.37 µM) | 1 µg/mL (≈ 2.19 µM) | 8.25
23 | CCOc1cc(Cc2cnc(N)nc2N)cc(OS(=O)(=O)N(C)C2CC2)c1-c1ccc(O)cc1 [Example 20-f, N-Cyclopropld-N-methyl-sulphamic acid 4-(2,4-diamino-pyrimidin-5-ylmethyl)-6-ethoxy-4′-hydroxy-biphenyl-2-yl ester] | 1 µg/mL (≈ 2.06 µM) | 1 µg/mL (≈ 2.06 µM) | 8.01 | 6.85 |  |  |  |  |  | 
24 | CCOc1cc(Cc2cnc(N)nc2N)cc(OS(=O)(=O)C(C)C)c1-c1ccc(OC)cc1 [Example 16-c, Propane-2-sulphonic acid 4-(2,4-diamino-Ryimidin-5-ylmethyl)-6-ethoxy-4′-methoxy-biphenyl-2-yl ester] | 2 µg/mL (≈ 4.23 µM) | 2 µg/mL (≈ 4.23 µM) | 7.74 | 6.59 |  |  |  |  |  | 
